A word on the Km: it is the substrate concentration at which the rate is half of its maximum. Usually IC50 stands for the concentration needed to halve the response being measured.

The target in one test is Ser445-hGDH2 (Homo sapiens, UniProt P49448). How it is done: (§1) Production and Purification of Recombinant hGDHs. […] The produced recombinant hGDHs were purified from Sf21 cell extracts using a previously described method that involves Ammonium Sulfate fractionation, hydrophobic interaction and hydroxyapatite chromatography. […] All hGDH proteins studied were produced and analyzed in parallel.
Sequence of Ser445-hGDH2 (P49448 54-558): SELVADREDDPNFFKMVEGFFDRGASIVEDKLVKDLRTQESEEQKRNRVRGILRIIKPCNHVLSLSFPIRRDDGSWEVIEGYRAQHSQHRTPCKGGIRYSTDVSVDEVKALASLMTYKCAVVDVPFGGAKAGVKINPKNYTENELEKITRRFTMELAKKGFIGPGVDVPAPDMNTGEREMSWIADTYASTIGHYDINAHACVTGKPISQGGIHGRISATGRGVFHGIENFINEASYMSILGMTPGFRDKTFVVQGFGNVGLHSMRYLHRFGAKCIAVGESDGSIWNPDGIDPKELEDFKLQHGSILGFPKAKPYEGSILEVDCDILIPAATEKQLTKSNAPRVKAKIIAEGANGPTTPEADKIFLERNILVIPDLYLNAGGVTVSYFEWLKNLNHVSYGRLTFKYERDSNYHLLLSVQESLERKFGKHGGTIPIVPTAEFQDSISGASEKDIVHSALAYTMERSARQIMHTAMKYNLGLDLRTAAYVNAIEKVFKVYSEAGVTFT
(§2) Enzyme Assays. […] Initial rates (enzyme velocity at the interval during which the change in absorbance maintained linearity) were recorded. […] Regulation of the human recombinant GDHs by allosteric stimulators was studied by adding to the reaction ADP or L-leucine in various concentrations. Inhibition by GTP was studied by adding this compound in various concentrations to the reaction either in the absence of allosteric modulators or in the presence of 0.1 mM or 1.0 mM ADP. For the heat inactivation studies, samples containing about 50 μg/ml purified enzyme were incubated at 47.5° C. Aliquots were removed at specified time intervals and assayed immediately for enzyme activity.

Test [1] deals with T1, Ala445-hGDH2 (Homo sapiens, UniProt P49448, S498A). How it is done: as §1, §2
T1 sequence (P49448 54-558 S498A): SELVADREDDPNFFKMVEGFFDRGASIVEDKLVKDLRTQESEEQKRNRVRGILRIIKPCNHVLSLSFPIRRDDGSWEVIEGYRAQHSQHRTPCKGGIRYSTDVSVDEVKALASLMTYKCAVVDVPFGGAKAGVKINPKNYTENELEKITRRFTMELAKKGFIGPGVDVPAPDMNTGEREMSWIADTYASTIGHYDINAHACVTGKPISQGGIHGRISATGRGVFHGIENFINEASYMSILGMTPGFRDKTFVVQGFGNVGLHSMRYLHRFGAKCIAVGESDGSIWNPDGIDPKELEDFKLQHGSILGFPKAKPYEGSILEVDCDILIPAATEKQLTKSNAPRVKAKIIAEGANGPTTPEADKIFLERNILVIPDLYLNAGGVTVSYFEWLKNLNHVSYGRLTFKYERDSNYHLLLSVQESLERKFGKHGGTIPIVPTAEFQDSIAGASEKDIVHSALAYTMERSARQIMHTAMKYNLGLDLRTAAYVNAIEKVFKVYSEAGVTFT
Test [2] deals with T2, hGDH1 (Homo sapiens, UniProt P00367). Here is the method:
as §1, §2

The target in test [3] is T1, Ala445-hGDH2. In words: Allosteric stimulation of recombinant GDH by ADP or L-leucine. The format is biochemical. Set-up: made in house; host or cells: Sf21 insect cells, baculovirus. The note with it: positive modulation. Here is the method: as §1
(§3) Enzyme Assays. GDH activity was assayed spectrophotometrically at 25° C. in the direction of reductive amination of α-ketoglutarate. Initial rates (enzyme velocity at the interval during which the change in absorbance maintained linearity) were recorded. […] Regulation of the human recombinant GDHs by allosteric stimulators was studied by adding to the reaction ADP or L-leucine in various concentrations. Inhibition by GTP was studied by adding this compound in various concentrations to the reaction either in the absence of allosteric modulators or in the presence of 0.1 mM or 1.0 mM ADP. For the heat inactivation studies, samples containing about 50 μg/ml purified enzyme were incubated at 47.5° C. Aliquots were removed at specified time intervals and assayed immediately for enzyme activity.

In test [4] the target is T2, hGDH1. The test is described as above. Set-up: made in house; host or cells: Sf21 insect cells, baculovirus. The format is biochemical. The note with it: positive modulation. How it is done: as §1, §3
Test [5] concerns the target T3, hGDH2 (Homo sapiens, UniProt P49448).
T3 construct: made in house; host or cells: Sf21 insect cells, baculovirus
The test is described as above. It counts as biochemical. Conditions: positive modulation. Here is the method:
as §1, §3

Test [6] concerns the target T4, Ser443-hGDH1 (Arg443Ser hGDH1 mutant) (Homo sapiens, UniProt P00367, R496S).
T4 construct: made in house; host or cells: Sf21 insect cells
In words: Inhibition of purified recombinant GDH by female steroidal hormones. The format is biochemical. The text has this:
(§4) Production and Purification of Recombinant hGDHs.
Purification of Recombinant Wild-Type and Mutant hGDHs—Using extracts of Sf21 cells expressing wild-type hGDH1 or hGDH2, or the Arg443Ser hGDH1 mutant were purified to homogeneity using a previously described procedure (Kanavouras et al., 2007). Also, as described below, the Arg443Ser/Gly456Ala double mutant and the Ser409Arg/Asp single mutants of hGDH1 and the Ser445Ala mutant of hGDH2 were studied after they were purified to homogeneity using extracts of Sf21 cells expressing these proteins. Enzyme recoveries and degree of purification of the final products were similar to those of the wild-type hGDH1 and hGDH2.
This was further tested by studying a double mutant of hGDH1 that, in addition to the Arg443Ser change, carries the Gly456Ala polymorphism that confers resistance to GTP. […] That substitution of Ser for Arg443 is responsible for the sensitivity of the wild-type hGDH2 to estrogens was confirmed by reverse mutagenesis experiments in which the Ser443 of hGDH2 was replaced by Arg.

The next test concerns the target T5, wild-type hGDH2 (Homo sapiens, UniProt P49448).
T5 construct: made in house; host or cells: Sf21 insect cells, baculovirus
The test is described as above. The format is biochemical. The note with it: for relative inhibition of hGDH2 versus hGDH1: in words. How it is done: (§5) For this, a study was performed on the interaction of estrogens with the hGDH2 variant as well as with the wild type-hGDH2 and hGDH1 obtained by expression of the corresponding cDNAs in Sf21 cells.
as §1, §3
(§6) Purification of Recombinant Wild-Type and Mutant hGDHs—Using extracts of Sf21 cells expressing wild-type hGDH1 or hGDH2, or the Arg443Ser hGDH1 mutant were purified to homogeneity using a previously described procedure (Kanavouras et al., 2007). Also, as described below, the Arg443Ser/Gly456Ala double mutant and the Ser409Arg/Asp single mutants of hGDH1 and the Ser445Ala mutant of hGDH2 were studied after they were purified to homogeneity using extracts of Sf21 cells expressing these proteins.

A further test deals with T6, wild-type hGDH1 (Homo sapiens, UniProt P00367).
T6 construct: made in house; host or cells: Sf21 insect cells, baculovirus
T6 sequence (P00367 54-558): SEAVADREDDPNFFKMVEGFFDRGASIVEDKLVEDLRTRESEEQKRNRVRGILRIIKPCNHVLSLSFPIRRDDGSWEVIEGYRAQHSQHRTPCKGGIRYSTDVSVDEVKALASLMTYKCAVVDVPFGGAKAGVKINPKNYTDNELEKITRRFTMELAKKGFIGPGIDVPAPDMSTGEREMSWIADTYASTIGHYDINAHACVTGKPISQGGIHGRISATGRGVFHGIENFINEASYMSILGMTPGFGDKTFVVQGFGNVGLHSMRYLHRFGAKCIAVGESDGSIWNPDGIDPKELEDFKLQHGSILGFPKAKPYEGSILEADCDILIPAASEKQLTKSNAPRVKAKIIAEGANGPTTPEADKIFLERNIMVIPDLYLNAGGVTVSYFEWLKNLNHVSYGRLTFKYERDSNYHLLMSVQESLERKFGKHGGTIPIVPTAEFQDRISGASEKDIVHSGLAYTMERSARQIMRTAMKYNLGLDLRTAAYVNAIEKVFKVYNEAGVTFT
The description is as above. It counts as biochemical. How it is done: as §5, §1, §3, §6

The target of the next test is T7, Ser445Ala hGDH2 variant (Homo sapiens, UniProt P49448, S498A).
T7 construct: made in house; host or cells: Sf21 insect cells, baculovirus
T7 sequence (P49448 54-558 S498A): as the sequence (P49448 54-558 S498A) above
The test is described as follows: Inhibition of purified recombinant GDH by estrogens. It counts as biochemical. Conditions: baseline conditions (absence of allosteric effectors). How it is done: as §5, §4

Test [7] concerns the target T2, hGDH1. Set-up: made in house; host or cells: Sf21 insect cells, baculovirus. Conditions: Zaganas and Plaitakis, 2002; read-out: IC50 (GTP inhibition); cited from earlier work.
For test [8], the target named is T1, Ala445-hGDH2. In words: GTP inhibition of purified recombinant GDH activity. Further details: made in house; host or cells: Sf21 insect cells, baculovirus. It counts as biochemical. Here is the method:
(§7) To investigate whether the Ser445Ala change modified the protein function of hGDH2, an Ala445-hGDH2 variant was obtained in recombinant form by expressing in Sf21 cells using the baculovirus expression system a GLUD2 cDNA with G instead of 1492T. […] The specific basal activity of the variant was concentration-dependent (FIGS. 6&7), as also previously shown for hGDH2 but not for hGDH1. At enzyme concentrations of about 5 μg/ml, the basal specific activity of the variant approached that of hGDH1 (FIGS. 6 & 7), but in contrast to the latter this activity was resistant to suppression by GTP (Table 3).
as §4

In test [9] the target is T2, hGDH1. The test is described as above. The format is biochemical. Further details: made in house; host or cells: Sf21 insect cells, baculovirus. How it is done:
as §7, §4

The target of test [10] is T3, hGDH2. Conditions: Zaganas and Plaitakis, 2002; read-out: IC50 (GTP inhibition); cited from earlier work.
Test [11] addresses T3, hGDH2. In words: GTP inhibition of purified recombinant GDH activity. It counts as biochemical. Here is the method: as §7, §4
[12] abbreviates: No ADP (baseline conditions), read-out: IC50.

Molecules are shown by their SMILES. “And” between values parts separate entries of the source, which are not always exact repeats. Equal values may be shown once. Read-outs that look alike come from different tables or passages of the source.

T3 sequence (P49448 54-558): as the sequence (P49448 54-558) above
T5 sequence (P49448 54-558): as above
T2 sequence (P00367 54-558): as the sequence (P00367 54-558) above
T4 sequence (P00367 54-558 R496S): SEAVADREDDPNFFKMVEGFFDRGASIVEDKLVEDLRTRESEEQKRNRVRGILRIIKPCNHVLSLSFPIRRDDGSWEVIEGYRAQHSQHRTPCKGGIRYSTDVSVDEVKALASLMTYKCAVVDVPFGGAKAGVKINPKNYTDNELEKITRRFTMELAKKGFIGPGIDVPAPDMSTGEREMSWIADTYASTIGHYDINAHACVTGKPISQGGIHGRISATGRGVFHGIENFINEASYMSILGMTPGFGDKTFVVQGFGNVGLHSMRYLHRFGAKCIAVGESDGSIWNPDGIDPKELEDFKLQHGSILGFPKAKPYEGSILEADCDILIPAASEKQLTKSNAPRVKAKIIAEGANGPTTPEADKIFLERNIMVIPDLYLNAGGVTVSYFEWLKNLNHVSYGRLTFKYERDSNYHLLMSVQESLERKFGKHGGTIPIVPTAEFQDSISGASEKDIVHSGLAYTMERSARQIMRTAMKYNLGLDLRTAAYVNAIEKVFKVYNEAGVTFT

In the case of `O=C(O)CCC(=O)C(=O)O` [α-Ketoglutarate], the Km at Ser445-hGDH2 (read-out: Km α-Ketoglutarate) is 2.07 ± 0.29 mM; on Ala445-hGDH2 [1] (read-out: Km α-Ketoglutarate) it was 2.67 ± 0.31 mM; on hGDH1 [2] (read-out: Km α-Ketoglutarate), 2.01 ± 0.18 mM.

With `Nc1ncnc2c1ncn2[C@@H]1O[C@H](COP(=O)(O)OP(=O)(O)O)[C@@H](O)[C@H]1O` [ADP], the EC50 is 58.2 ± 5.5 µM at Ala445-hGDH2 [3] (read-out: ADP SC50), 22.4 ± 2.1 µM at hGDH1 [4] (read-out: ADP SC50) and 68.5 ± 2.3 µM on hGDH2 [5] (read-out: ADP SC50).

On to `C[C@]12CC[C@@H]3c4ccc(O)cc4CC[C@H]3[C@@H]1C[C@@H](O)[C@@H]2O` [Oestriol], for which the IC50 in test [6] (0.1 mM ADP, read-out: IC50) came to 2.43 ± 0.05 µM; at wild-type hGDH2 (0.1 mM ADP), 189 ± 17.9 µM; at wild-type hGDH2 (No ADP (baseline conditions)), 11.3 ± 0.74 µM; at wild-type hGDH1 (0.1 mM ADP, read-out: IC50), 316 ± 26.1 µM; at wild-type hGDH1 (setting [12]), 145 ± 18.8 µM. Moreover, the “relative inhibition of hGDH2 versus hGDH1” value on wild-type hGDH2 is on record as “inhibited hGDH2 more strongly than hGDH”; on wild-type hGDH2 (listed as oestriol) it was “inhibited hGDH2 more strongly than hGDH1”.

With `CC(=O)[C@H]1CC[C@H]2[C@@H]3CCC4=CC(=O)CC[C@]4(C)[C@H]3CC[C@]12C` [Progesterone], the IC50 in test [6] (0.1 mM ADP, read-out: IC50) came to 8.62 ± 1.23 µM; at wild-type hGDH2 (0.1 mM ADP), 392 ± 8.91 µM; at wild-type hGDH2 (No ADP (baseline conditions)) it was 12.3 ± 2.63 µM; at wild-type hGDH1 (0.1 mM ADP, read-out: IC50) it was 596 ± 50.1 µM; at wild-type hGDH1 (setting [12]), 219 ± 7.99 µM. Moreover, the “relative inhibition of hGDH2 versus hGDH1” value is recorded as “inhibited hGDH2 more strongly than hGDH” on wild-type hGDH2 and “inhibited hGDH2 more strongly than hGDH1” at wild-type hGDH2 (listed as progesterone).

On to `N[C@@H](CCC(=O)O)C(=O)O` [Glutamate], for which the Michaelis constant (Km) at Ser445-hGDH2 (read-out: Km Glutamate) came to 10.7 ± 1.77 mM; on Ala445-hGDH2 [1] (read-out: Km Glutamate), 6.8 ± 1.9 mM; at hGDH1 [2] (read-out: Km Glutamate), 12.4 ± 1.48 mM.

In the case of `CC(C)C[C@H](N)C(=O)O` [L-leucine], the EC50 at Ala445-hGDH2 [3] (read-out: L-leucine SC50) was 955 ± 45 µM; on hGDH1 [4] (read-out: L-leucine SC50), 860 ± 139 µM; on hGDH2 [5] (read-out: L-leucine SC50), 1010 ± 213 µM.

In the case of `CC/C(=C(/CC)c1ccc(O)cc1)c1ccc(O)cc1` [DES, diethylstilbestrol], the half-maximal inhibitory concentration (IC50) in test [6] (0.1 mM ADP, read-out: IC50) is 0.51 ± 0.05 µM; on Ser445Ala hGDH2 variant it was 0.019 ± 0.003 µM; at wild-type hGDH2 (0.1 mM ADP), 1.05 ± 0.09 µM; at wild-type hGDH2 (No ADP (baseline conditions)) it was 0.094 µM and 0.09 µM; at wild-type hGDH1 (0.1 mM ADP, read-out: IC50), 7.07 ± 0.4 µM; on wild-type hGDH1 (setting [12]) it was 1.67 ± 0.02 µM. For the same compound, the IC50 at wild-type hGDH1 (baseline conditions (absence of allosteric effectors), read-out: IC50±S.E.) worked out at 1.53 µM. Besides, the “fold higher sensitivity/affinity of hGDH2 than hGDH1” value at wild-type hGDH2 (baseline conditions, hGDH2 versus hGDH1) is > 15 fold and ~18 fold. In addition, the “effect of inhibitor on Km for α-ketoglutarate, NH3 or glutamate” value at wild-type hGDH2 (inhibitory concentrations of DES, wild-type hGDH1 and hGDH2) was “not altered”.

For the compound `Nc1nc2c(ncn2[C@@H]2O[C@H](COP(=O)(O)OP(=O)(O)OP(=O)(O)O)[C@@H](O)[C@H]2O)c(=O)[nH]1` [GTP], the concentration for half-maximal inhibition (IC50) at hGDH1 [7] was 0.1 to 0.3 µM; on Ala445-hGDH2 [8] (0.1 mM ADP) it was 24.4 ± 2.62 µM; at Ala445-hGDH2 [8] (1 mM ADP), 258 ± 42.2 µM; on Ala445-hGDH2 [8] (No ADP), 29.1 ± 4.48 µM; on hGDH1 [9] (0.1 mM ADP), 1.61 ± 0.02 µM; on hGDH1 [9] (1 mM ADP) it was 18.5 ± 0.49 µM. The IC50 on hGDH1 [9] (No ADP) is 0.31 ± 0.03 µM; at hGDH2 [10], over 200 µM; on hGDH2 [11] (0.1 mM ADP), 12.2 ± 2.65 µM; on hGDH2 [11] (1 mM ADP), 204 ± 36.4 µM; at hGDH2 [11] (No ADP), 40.1 ± 4.46 µM. Also, the “Hill Coefficient” value on Ala445-hGDH2 [8] (0.1 mM ADP) was determined as 1.01 ± 0.09; at Ala445-hGDH2 [8] (1 mM ADP), 0.71 ± 0.04; on Ala445-hGDH2 [8] (No ADP), 0.80 ± 0.05; on hGDH1 [9] (0.1 mM ADP) it was 2.13 ± 0.15; on hGDH1 [9] (1 mM ADP), 1.94 ± 0.07; on hGDH1 [9] (No ADP), 1.51 ± 0.07. In addition, the “Hill Coefficient” value at hGDH2 [11] (0.1 mM ADP) was found to be 1.06 ± 0.16; on hGDH2 [11] (1 mM ADP), 0.82 ± 0.11; on hGDH2 [11] (No ADP), 0.72 ± 0.05.

As for `C[C@]12CC[C@@H]3c4ccc(O)cc4CC[C@H]3[C@@H]1CC[C@@H]2O` [17 b-Estradiol, 17 beta-estradiol], the IC50 in test [6] was 2.22 ± 0.76 µM; on wild-type hGDH1 (IC50, 0.1 mM ADP) it was 69.2 ± 1.3 µM; at wild-type hGDH1 (IC50, No ADP (baseline conditions)) it was 26.9 µM.
